{
  "source": "patent US8099262B2",
  "about": "“Estimation of clinical cut-offs” (priority 2004, dated 2012)",
  "key": {"[1]": {"system": "HIV", "conditions": "Definition 3", "from_the_text": "This methodology constructs tree-structured rules in order to classify patients as successes (undetectable pathogen load after treatment) and failures. […] Imbalances for such parameters may therefore influence the decision taken for a certain parameter.\nThe classification tree poses queries, in which the answer to each query results in either the left or the right branch of the tree being taken at each stage. […] If yes, the left branch is taken, if no the right branch is taken. As with the methods of the aspects of the invention described previously, the other factors queried include the log baseline pathogen load and the phenotypic sensitivity score. The numbers at the termini of the final branches represent the response rate (1=100% response).\nThe clinical cut-off is chosen as the fold change that makes the difference between the two groups as large as possible.\nIn the classification trees model, tree-structured rules were constructed in order to classify patients in successes (undetectable viral load after treatment) and failures. The same parameters as for the other techniques were considered.\nThis implies that imbalances for other parameters may influence the decision taken for a certain parameter.\nDefinition 3 was a variant of definition 2.\nUsing definition 3, breakpoints determined by classification trees are applicable only to a subset of patients unless fold change is selected at the first tree node."}, "[2]": {"system": "HIV", "assay_type": "in vivo", "set-up": "key to effect range (difference between maximum and minimum effect, log viral load): log viral load drop; max effect (FC 1) minus min effect (plateau); Linear Regression Higher CO / Linear Regression Lower CO: unit not given here", "text": "Databases of studies for patients with tenofovir containing regimens and consisting of patient baseline demographic characteristics, clinical outcome results with viral load and resistance data (Fold change), were retrieved and remapped according to a common structure allowing a meta-analysis. The structure consisted of baseline sequence, viral load data set, viral load measurements and sampling dates (for example viral load within 3 months of starting new regimen and viral load assessment 8 and/or 24 weeks after beginning new regimen), CD4+ data set which contains CD4+ counts and sampling dates, resistance data set containing the fold changes to different antivirals and sampling dates; patient data set with patient information such as age, gender, race, treatment history; treatment data set with drug regimens, start and stop dates, doses, formulations, frequency of intake, regimen changes after resistance tests. The structure of such a clinical data base can be seen in FIG. 1a.\nThe viral load response data includes censored (<400 copies/ml) values. Parameters of the underlying uncensored distribution were estimated by maximum likelihood estimation in SAS (proc lifereg). The viral load response data are corrected for baseline viral load and cPSS.\n(§1) The models applied were linear regression, logistic regression, and a classification tree. These models also took into account effects of the concomitant HIV drugs (PSS), baseline viral load (Baseline Log(V1)i) and, optionally, treatment history in order to avoid bias introduced by imbalances of important characteristics. From the models, a prediction of clinical outcome could be made at different levels of the baseline fold change resistance.\nIn the linear regression model, the proposed equation was the following: LogVL dropi=β0+β1*Baseline Log(V1)i+β2*PSSi+β3*(1/FC)i+ξi where i represented the patient, β0 the intercept, β1, β2 and β3 coefficients indicated the increase in log viral load drop per unit increase of respectively the baseline log VL, the number of sensitive drugs in the background regimen and the inverse of the baseline fold change. ξi was a random error term indicating the deviation of the patient from the value predicted by the model. Interactions between all the factors were evaluated and other baseline characteristics, i.e treatment history, were added if relevant.\nWhen viral load results under the detection limits are obtained, biases could be introduced if the detection limit values are considered when calculating viral load drops and using those in the linear regression model. To avoid this, censoring needed to be taken into account and therefore the PROC LIFEREG facility in the SAS package was employed.\nClinical responses were predicted in the models developed in previous step 2. […] In order to determine the fold changes at which clinically relevant diminished clinical responses can be observed, three definitions of clinical cut-offs were considered:\n(§2) The maximum effect was defined as the treatment effect at fold change 1, and the minimum effect was defined as the treatment effect at a very high fold change (i.e. when the curve reached a plateau). The effect range was then the difference between the maximum effect and the minimum effect."}, "[3]": {"system": "HIV", "test": "Logistic regression model of probability of success/failure as a function of baseline fold change resistance (clinical cut-offs)", "assay_type": "in vivo", "text": "In such a method, Prob of success is preferably calculated by performing a logistic regression analysis using data from a clinical response dataset, wherein Prob of success is modelled according to the following equation: […]\nas §1, with “The clinical outcome results (drop in viral load and response rate) were modelled as a function of baseline fold change (FC) as determined by virtual phenotype (see WO01/79540 and WO02/33402; also http://www.vircolab.com). The models” for “The models”\nIn the logistic regression, the proposed equation was the following: […]\nHowever, by binning the viral load into successes and failures, part of the information of the continuous variable viral load is lost. Estimates are also corrected for covariates as for linear regression.\nas §2\nThe lower and higher cutoffs are defined as the fold change associated with an expected 20% and 80% decrease respectively of the reference activity of the drug within the regimen."}, "[4]": {"conditions": "Definition 1, Subgroup 2: PSS = 0, baseline Log (VL) = 4"}, "[5]": {"conditions": "Definition 1, Subgroup 3: PSS = 2, baseline Log (VL) = 5"}, "[6]": {"conditions": "Definition 2, Overall (whole population)"}, "[7]": {"conditions": "Definition 2, Subgroup 1: PSS = 2, baseline Log (VL) = 4"}, "[8]": {"conditions": "Definition 2, Subgroup 2: PSS = 0, baseline Log (VL) = 4"}, "[9]": {"conditions": "Definition 2, Subgroup 3: PSS = 2, baseline Log (VL) = 5"}, "[10]": {"conditions": "Definition 2, two active drugs besides the drug, baseline Log(VL) of 4"}, "[11]": {"conditions": "Definition 3, Subgroup 1: PSS = 2, baseline Log (VL) = 4"}, "[12]": {"conditions": "Definition 3, Subgroup 2: PSS = 0, baseline Log (VL) = 4"}, "[13]": {"conditions": "Definition 3, Subgroup 3: PSS = 2, baseline Log (VL) = 5"}, "[14]": {"conditions": "preliminary linear regression analysis, virologic response at 8 weeks"}},
  "note": "Entries after “also recorded” stand apart in the source; their conditions may differ. Where two headings read alike, the source gives them in different places.",
  "data": [
    {"smiles": "CC(C)OC(=O)OCOP(=O)(CO[C@H](C)Cn1cnc2c(N)ncnc21)OCOC(=O)OC(C)C.O=C(O)/C=C/C(=O)O", "note": "[TDF]", "values": [
      {"measurement": "Classification Tree Lower CO", "setting": "[1]; Overall", "result": 1.15},
      {"measurement": "Classification Tree Lower CO", "setting": "[1]; Subgroup 1: PSS = 2, baseline Log (VL) = 4", "result": 1.15},
      {"measurement": "Classification Tree Lower CO", "setting": "[1]; Subgroup 2: PSS = 0, baseline Log (VL) = 4", "result": 1.15},
      {"measurement": "Classification Tree Lower CO", "setting": "[1]; Subgroup 3: PSS = 2, baseline Log (VL) = 5", "result": 1.15},
      {"measurement": "Linear Regression Lower CO (clinical cut-off, fold change)", "setting": "[2]; Definition 1, Subgroup 1: PSS = 2, baseline Log (VL) = 4", "result": 3.73},
      {"measurement": "Linear Regression Higher CO (clinical cut-off, fold change)", "setting": "[2]; Definition 1, Subgroup 1: PSS = 2, baseline Log (VL) = 4, listed as Tenofovir", "result": ">assay"},
      {"measurement": "Linear Regression Higher CO (clinical cut-off, fold change)", "setting": "[2]; Definition 1, Subgroup 1: PSS = 2, baseline Log (VL) = 4, listed as tenofovir", "result": "No higher cut-off could be derived; also recorded: >assay"},
      {"measurement": "Linear Regression Higher CO", "setting": "[2]; [4]", "result": 3.8},
      {"measurement": "Linear Regression Lower CO", "setting": "[2]; [4]", "result": 1.68},
      {"measurement": "Linear Regression Higher CO", "setting": "[2]; [5]", "result": ">assay"},
      {"measurement": "Linear Regression Lower CO", "setting": "[2]; [5]", "result": ">assay"},
      {"measurement": "Linear Regression Higher CO", "setting": "[2]; [6]", "result": 5},
      {"measurement": "Linear Regression Lower CO", "setting": "[2]; [6]", "result": 1.25},
      {"measurement": "Linear Regression Higher CO", "setting": "[2]; [7]", "result": 5},
      {"measurement": "Linear Regression Lower CO", "setting": "[2]; [7]", "result": 1.25},
      {"measurement": "Linear Regression Higher CO", "setting": "[2]; [8]", "result": 5},
      {"measurement": "Linear Regression Lower CO", "setting": "[2]; [8]", "result": 1.25},
      {"measurement": "Linear Regression Higher CO", "setting": "[2]; [9]", "result": 5},
      {"measurement": "Linear Regression Lower CO", "setting": "[2]; [9]", "result": 1.25},
      {"measurement": "drop in log viral load at fold change 1", "setting": "[2]; [10]", "result": "−1.48"},
      {"measurement": "drop in log viral load at the maximum (asymptotic) fold change", "setting": "[2]; [10]", "result": "−0.28"},
      {"measurement": "effect range (difference between maximum and minimum effect, log viral load)", "setting": "[2]; [10]", "result": 1.2},
      {"measurement": "Linear Regression Higher CO", "setting": "[2]; Definition 3, Overall", "result": 5},
      {"measurement": "Linear Regression Lower CO", "setting": "[2]; Definition 3, Overall", "result": 1.1},
      {"measurement": "Linear Regression Higher CO", "setting": "[2]; [11]", "result": 5},
      {"measurement": "Linear Regression Lower CO", "setting": "[2]; [11]", "result": 1.1},
      {"measurement": "Linear Regression Higher CO", "setting": "[2]; [12]", "result": 5},
      {"measurement": "Linear Regression Lower CO", "setting": "[2]; [12]", "result": 1.1},
      {"measurement": "Linear Regression Higher CO", "setting": "[2]; [13]", "result": 5},
      {"measurement": "Linear Regression Lower CO", "setting": "[2]; [13]", "result": 1.1},
      {"measurement": "VIROLOGIC RESPONSE Baseline FC for 80% REDUCTION of response (upper cutoff)", "setting": "[2]; preliminary linear regression analysis, definition 2", "result": 2.5},
      {"measurement": "VIROLOGIC RESPONSE 20% REDUCTION (fold change, preliminary VirtualPhenotype Clinical Cutoff)", "setting": "[2]; [14]", "result": 1.2},
      {"measurement": "VIROLOGIC RESPONSE 80% REDUCTION (fold change, preliminary VirtualPhenotype Clinical Cutoff)", "setting": "[2]; [14]", "result": 2.5},
      {"measurement": "lower cut-off derived from the Table", "setting": "[2]; summary over models, 2 active drugs besides the drug, baseline log(VL) of 4", "result": 1.2},
      {"measurement": "Logistic Regression Higher CO", "setting": "[3]; [7]", "result": 3.81},
      {"measurement": "Logistic Regression Lower CO", "setting": "[3]; [7]", "result": 1.2},
      {"measurement": "Logistic Regression Higher CO", "setting": "[3]; [8]", "result": 3.36},
      {"measurement": "Logistic Regression Lower CO", "setting": "[3]; [8]", "result": 1.16},
      {"measurement": "Logistic Regression Higher CO", "setting": "[3]; [9]", "result": 3.4},
      {"measurement": "Logistic Regression Lower CO", "setting": "[3]; [9]", "result": 1.17},
      {"measurement": "Logistic Regression Lower CO", "setting": "[3]; Definition 3, Overall", "result": 1.2},
      {"measurement": "Logistic Regression Higher CO", "setting": "[3]; [11]", "result": 3.81},
      {"measurement": "Logistic Regression Lower CO", "setting": "[3]; [11]", "result": 1.2},
      {"measurement": "Logistic Regression Higher CO", "setting": "[3]; [12]", "result": 3.36},
      {"measurement": "Logistic Regression Lower CO", "setting": "[3]; [12]", "result": 1.2},
      {"measurement": "Logistic Regression Higher CO", "setting": "[3]; [13]", "result": 3.4},
      {"measurement": "Logistic Regression Lower CO", "setting": "[3]; [13]", "result": 1.2}
    ]}
  ]
}
